Molecules are shown by their SMILES. pKi: −log10 of the molar value.

Sequence of hCA XII (O43570 25-354): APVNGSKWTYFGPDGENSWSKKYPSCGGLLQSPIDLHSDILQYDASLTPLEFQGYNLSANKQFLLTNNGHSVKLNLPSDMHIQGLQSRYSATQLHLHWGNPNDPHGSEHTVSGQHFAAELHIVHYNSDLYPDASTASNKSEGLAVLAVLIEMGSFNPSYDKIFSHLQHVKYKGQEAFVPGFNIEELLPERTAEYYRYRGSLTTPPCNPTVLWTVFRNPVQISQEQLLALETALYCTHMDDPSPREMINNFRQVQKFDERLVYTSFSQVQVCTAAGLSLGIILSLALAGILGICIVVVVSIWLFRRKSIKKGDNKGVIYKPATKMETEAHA

The target in the first test is hCA I (Homo sapiens, UniProt P00915). As to the kind of experiment: CA inhibition, stopped-flow CO2 hydrase assay, hCA I. The format is biochemical. Particulars: Table 1, saccharin-based derivatives; recombinant enzyme, 15 min preincubation, pH 7.5. How it is done: (§1) An Applied Photophysics stopped-flow instrument has been used for assaying the CA-catalyzed CO2 hydration activity. […] The initial rates of the CA-catalysed CO2 hydration reaction were followed for a period of 10−100 s. The CO2 concentrations ranged from 1.7 to 17 mM for the determination of the kinetic parameters and inhibition constants. […] The uncatalyzed rates were determined in the same manner and subtracted from the total observed ones. Stock solutions of each inhibitor (0.1 mM) were prepared in distilled − deionized water and dilutions up to 0.01 nM were done thereafter with distilled − deionized water. Inhibitor and enzyme solutions were preincubated together for 15 min at room temperature prior to assay to allow for the formation of the E−I complex. The inhibition constants were obtained by nonlinear least-squares methods using the Cheng-Prusoff equation and represent the mean from at least three different determinations. […] Human CA isoforms were recombinant enzymes obtained in-house as reported earlier.
Sequence of hCA I (P00915 whole entry): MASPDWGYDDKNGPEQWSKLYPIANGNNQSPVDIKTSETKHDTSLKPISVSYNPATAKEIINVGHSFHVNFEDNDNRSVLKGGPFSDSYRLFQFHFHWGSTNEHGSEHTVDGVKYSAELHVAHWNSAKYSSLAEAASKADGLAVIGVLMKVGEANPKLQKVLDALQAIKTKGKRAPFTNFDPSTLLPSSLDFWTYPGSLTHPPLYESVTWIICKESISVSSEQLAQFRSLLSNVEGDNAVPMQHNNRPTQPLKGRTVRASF
Take `O=C(O)c1ccccc1S(=O)(=O)Nc1ccc(Cl)cc1` [Compound 20]: the pKi was less than 3.00.

Regarding `O=C(O)c1ccccc1S(=O)(=O)Nc1ccc(Br)cc1` [Compound 21], the negative logarithm of the Ki (pKi) is less than 3.00.

Consider `O=C(O)c1ccccc1S(=O)(=O)Nc1ccc(C(F)(F)F)cc1` [Compound 22], for which the pKi was less than 3.00.

On to `O=C(O)c1ccccc1S(=O)(=O)Nc1cccc([N+](=O)[O-])c1` [Compound 23], for which the negative logarithm of the Ki (pKi) was less than 3.00.

In the case of `O=C(O)c1ccccc1S(=O)(=O)Nc1ccc([N+](=O)[O-])cc1` [Compound 24], the pKi is less than 3.00.

Consider `Cc1ccc(NS(=O)(=O)c2ccccc2C(=O)O)cc1` [Compound 25], for which the pKi was less than 3.00.

For the compound `Cc1cccc(C)c1NS(=O)(=O)c1ccccc1C(=O)O` [Compound 26], the negative-log Ki (pKi) is less than 3.00.

On to `CC(C)c1ccc(NS(=O)(=O)c2ccccc2C(=O)O)cc1` [Compound 27], for which the negative logarithm of the Ki (pKi) was less than 3.00.

Consider `COc1ccc(NS(=O)(=O)c2ccccc2C(=O)O)cc1` [Compound 28], for which the negative-log Ki (pKi) is less than 3.00.

For the compound `O=C1c2ccccc2S(=O)(=O)N1c1ccccc1` [Compound 29], the pKi was less than 3.00.

On to `O=C1c2ccccc2S(=O)(=O)N1c1ccc(F)cc1` [Compound 30], for which the pKi was less than 3.00.

With `O=C1c2ccccc2S(=O)(=O)N1c1ccccc1Cl` [Compound 31], the negative-log Ki (pKi) is less than 3.00.

As to `O=C1c2ccccc2S(=O)(=O)N1c1ccc(Cl)cc1` [Compound 32], the negative-log Ki (pKi) is less than 3.00.

As for `O=C1c2ccccc2S(=O)(=O)N1c1ccc(Br)cc1` [Compound 33], the pKi was less than 3.00.

Consider `O=C1c2ccccc2S(=O)(=O)N1c1ccc(C(F)(F)F)cc1` [Compound 34], for which the pKi is less than 3.00.

With `O=C1c2ccccc2S(=O)(=O)N1c1cccc([N+](=O)[O-])c1` [Compound 35], the pKi was less than 3.00.

Turning to `O=C1c2ccccc2S(=O)(=O)N1c1ccc([N+](=O)[O-])cc1` [Compound 36], the negative-log Ki (pKi) was less than 3.00.

`Cc1ccc(N2C(=O)c3ccccc3S2(=O)=O)cc1` [Compound 37]: the pKi is less than 3.00.

On to `Cc1cccc(C)c1N1C(=O)c2ccccc2S1(=O)=O` [Compound 38], for which the pKi is less than 3.00.

Another test deals with hCA II (Homo sapiens, UniProt P00918). Description: CA inhibition, stopped-flow CO2 hydrase assay, hCA II. It is filed as biochemical.
Conditions: not given
How it is done: as §1
`O=C(O)c1ccccc1S(=O)(=O)Nc1ccc([N+](=O)[O-])cc1` [Compound 24] gave a pKi of 4.17.

Compound `O=C1c2ccccc2S(=O)(=O)N1c1ccccc1Cl` [Compound 31] gave a pKi of 3.32.

Staying with this test, now noted: Table 1, saccharin-based derivatives; recombinant enzyme, 15 min preincubation, pH 7.5.
On to `O=C(O)c1ccccc1S(=O)(=O)Nc1ccc(Cl)cc1` [Compound 20], for which the negative-log Ki (pKi) was less than 3.00.

Consider `O=C(O)c1ccccc1S(=O)(=O)Nc1ccc(Br)cc1` [Compound 21], for which the pKi was less than 3.00.

As for `O=C(O)c1ccccc1S(=O)(=O)Nc1ccc(C(F)(F)F)cc1` [Compound 22], the negative logarithm of the Ki (pKi) was less than 3.00.

`O=C(O)c1ccccc1S(=O)(=O)Nc1cccc([N+](=O)[O-])c1` [Compound 23]: the negative-log Ki (pKi) is less than 3.00.

As to `Cc1ccc(NS(=O)(=O)c2ccccc2C(=O)O)cc1` [Compound 25], the negative-log Ki (pKi) was less than 3.00.

In the case of `Cc1cccc(C)c1NS(=O)(=O)c1ccccc1C(=O)O` [Compound 26], the negative-log Ki (pKi) was less than 3.00.

Turning to `CC(C)c1ccc(NS(=O)(=O)c2ccccc2C(=O)O)cc1` [Compound 27], the negative logarithm of the Ki (pKi) is less than 3.00.

For `COc1ccc(NS(=O)(=O)c2ccccc2C(=O)O)cc1` [Compound 28], the pKi was less than 3.00.

For `O=C1c2ccccc2S(=O)(=O)N1c1ccccc1` [Compound 29], the pKi was less than 3.00.

In the case of `O=C1c2ccccc2S(=O)(=O)N1c1ccc(F)cc1` [Compound 30], the negative-log Ki (pKi) is less than 3.00.

Turning to `O=C1c2ccccc2S(=O)(=O)N1c1ccc(Cl)cc1` [Compound 32], the pKi was less than 3.00.

Take `O=C1c2ccccc2S(=O)(=O)N1c1ccc(Br)cc1` [Compound 33]: the negative logarithm of the Ki (pKi) was less than 3.00.

`O=C1c2ccccc2S(=O)(=O)N1c1ccc(C(F)(F)F)cc1` [Compound 34]: the negative logarithm of the Ki (pKi) was less than 3.00.

As to `O=C1c2ccccc2S(=O)(=O)N1c1cccc([N+](=O)[O-])c1` [Compound 35], the pKi is less than 3.00.

As for `O=C1c2ccccc2S(=O)(=O)N1c1ccc([N+](=O)[O-])cc1` [Compound 36], the pKi is less than 3.00.

For `Cc1ccc(N2C(=O)c3ccccc3S2(=O)=O)cc1` [Compound 37], the pKi is less than 3.00.

Take `Cc1cccc(C)c1N1C(=O)c2ccccc2S1(=O)=O` [Compound 38]: the pKi was less than 3.00.

In another test the target is hCA IX (Homo sapiens, UniProt Q16790). As to the kind of experiment: CA inhibition, stopped-flow CO2 hydrase assay, hCA IX. It is filed as biochemical.
Conditions: not given
Here is the method: as §1
Compound `O=C(O)c1ccccc1S(=O)(=O)Nc1ccc([N+](=O)[O-])cc1` [Compound 24] gave a negative-log Ki (pKi) of 6.62.

Turning to `O=C1c2ccccc2S(=O)(=O)N1c1ccc([N+](=O)[O-])cc1` [Compound 36], the negative-log Ki (pKi) is 3.35.

The test is the same for the next values; noted with them: Table 1, saccharin-based derivatives; recombinant enzyme, 15 min preincubation, pH 7.5.
With `O=C(O)c1ccccc1S(=O)(=O)Nc1ccc(Cl)cc1` [Compound 20], the pKi is less than 3.00.

As for `O=C(O)c1ccccc1S(=O)(=O)Nc1ccc(Br)cc1` [Compound 21], the pKi was 4.14.

In the case of `O=C(O)c1ccccc1S(=O)(=O)Nc1ccc(C(F)(F)F)cc1` [Compound 22], the negative logarithm of the Ki (pKi) is 4.07.

In the case of `O=C(O)c1ccccc1S(=O)(=O)Nc1cccc([N+](=O)[O-])c1` [Compound 23], the negative logarithm of the Ki (pKi) is less than 3.00.

In the case of `O=C(O)c1ccccc1S(=O)(=O)Nc1ccc([N+](=O)[O-])cc1` [Compound 24], the pKi is 6.62.

For the compound `Cc1ccc(NS(=O)(=O)c2ccccc2C(=O)O)cc1` [Compound 25], the pKi was less than 3.00.

Consider `Cc1cccc(C)c1NS(=O)(=O)c1ccccc1C(=O)O` [Compound 26], for which the pKi is less than 3.00.

Regarding `CC(C)c1ccc(NS(=O)(=O)c2ccccc2C(=O)O)cc1` [Compound 27], the negative logarithm of the Ki (pKi) was less than 3.00.

Consider `COc1ccc(NS(=O)(=O)c2ccccc2C(=O)O)cc1` [Compound 28], for which the negative logarithm of the Ki (pKi) is less than 3.00.

On to `O=C1c2ccccc2S(=O)(=O)N1c1ccccc1` [Compound 29], for which the pKi is less than 3.00.

In the case of `O=C1c2ccccc2S(=O)(=O)N1c1ccc(F)cc1` [Compound 30], the pKi is less than 3.00.

Turning to `O=C1c2ccccc2S(=O)(=O)N1c1ccccc1Cl` [Compound 31], the negative logarithm of the Ki (pKi) was 3.19.

In the case of `O=C1c2ccccc2S(=O)(=O)N1c1ccc(Cl)cc1` [Compound 32], the pKi was less than 3.00.

Turning to `O=C1c2ccccc2S(=O)(=O)N1c1ccc(Br)cc1` [Compound 33], the pKi was 3.06.

Turning to `O=C1c2ccccc2S(=O)(=O)N1c1ccc(C(F)(F)F)cc1` [Compound 34], the pKi is less than 3.00.

For the compound `O=C1c2ccccc2S(=O)(=O)N1c1cccc([N+](=O)[O-])c1` [Compound 35], the pKi was less than 3.00.

Consider `O=C1c2ccccc2S(=O)(=O)N1c1ccc([N+](=O)[O-])cc1` [Compound 36], for which the pKi was 3.35.

Turning to `Cc1ccc(N2C(=O)c3ccccc3S2(=O)=O)cc1` [Compound 37], the pKi was less than 3.00.

In the case of `Cc1cccc(C)c1N1C(=O)c2ccccc2S1(=O)=O` [Compound 38], the pKi is less than 3.00.

The next test deals with hCA XII (Homo sapiens, UniProt O43570). Description: CA inhibition, stopped-flow CO2 hydrase assay, hCA XII. It is filed as biochemical. The following applies: Table 1, saccharin-based derivatives; recombinant enzyme, 15 min preincubation, pH 7.5. How it is done:
as §1
For `O=C(O)c1ccccc1S(=O)(=O)Nc1ccc(Cl)cc1` [Compound 20], the negative-log Ki (pKi) was less than 3.00.

For `O=C(O)c1ccccc1S(=O)(=O)Nc1ccc(Br)cc1` [Compound 21], the negative-log Ki (pKi) is less than 3.00.

Consider `O=C(O)c1ccccc1S(=O)(=O)Nc1ccc(C(F)(F)F)cc1` [Compound 22], for which the pKi was less than 3.00.

Turning to `O=C(O)c1ccccc1S(=O)(=O)Nc1cccc([N+](=O)[O-])c1` [Compound 23], the pKi is less than 3.00.

In the case of `O=C(O)c1ccccc1S(=O)(=O)Nc1ccc([N+](=O)[O-])cc1` [Compound 24], the pKi is less than 3.00.

On to `Cc1ccc(NS(=O)(=O)c2ccccc2C(=O)O)cc1` [Compound 25], for which the pKi was less than 3.00.

Take `Cc1cccc(C)c1NS(=O)(=O)c1ccccc1C(=O)O` [Compound 26]: the pKi was less than 3.00.

Take `CC(C)c1ccc(NS(=O)(=O)c2ccccc2C(=O)O)cc1` [Compound 27]: the pKi was less than 3.00.

As for `COc1ccc(NS(=O)(=O)c2ccccc2C(=O)O)cc1` [Compound 28], the pKi was less than 3.00.

Turning to `O=C1c2ccccc2S(=O)(=O)N1c1ccccc1` [Compound 29], the negative logarithm of the Ki (pKi) is less than 3.00.

On to `O=C1c2ccccc2S(=O)(=O)N1c1ccc(F)cc1` [Compound 30], for which the pKi is less than 3.00.

With `O=C1c2ccccc2S(=O)(=O)N1c1ccccc1Cl` [Compound 31], the pKi is less than 3.00.

Consider `O=C1c2ccccc2S(=O)(=O)N1c1ccc(Cl)cc1` [Compound 32], for which the pKi is less than 3.00.

With `O=C1c2ccccc2S(=O)(=O)N1c1ccc(Br)cc1` [Compound 33], the negative-log Ki (pKi) is less than 3.00.

In the case of `O=C1c2ccccc2S(=O)(=O)N1c1ccc(C(F)(F)F)cc1` [Compound 34], the pKi is less than 3.00.

Turning to `O=C1c2ccccc2S(=O)(=O)N1c1cccc([N+](=O)[O-])c1` [Compound 35], the negative-log Ki (pKi) was less than 3.00.

For `O=C1c2ccccc2S(=O)(=O)N1c1ccc([N+](=O)[O-])cc1` [Compound 36], the pKi was less than 3.00.

On to `Cc1ccc(N2C(=O)c3ccccc3S2(=O)=O)cc1` [Compound 37], for which the pKi is less than 3.00.

Take `Cc1cccc(C)c1N1C(=O)c2ccccc2S1(=O)=O` [Compound 38]: the pKi is less than 3.00.

The values above are taken from paper PMC7580763, “Novel insights on saccharin- and acesulfame-based carbonic anhydrase inhibitors: design, synthesis, modelling investigations and biological activity evaluation” (Journal of Enzyme Inhibition and Medicinal Chemistry, 2020).
